From US7880007B2, “Bicyclic substituted phenyl piperidine modulators of muscarinic receptors” (Vertex Pharmaceuticals Incorporated, priority 2004, dated 2011)

Tests used:
Assay type in all cases: cell-based
M1 muscarinic receptor = target: T1, M1 muscarinic receptor (Homo sapiens, UniProt P11229); assay: Functional mobilization of intracellular calcium (FLIPR), M1-CHO cells; details: for M1 Activity: M1-CHO cells, calcium mobilization (FLIPR)
T1 construct: expressed in transfected cells; host or cells: CHO (M1-CHO)
T1 sequence (P11229 1-460): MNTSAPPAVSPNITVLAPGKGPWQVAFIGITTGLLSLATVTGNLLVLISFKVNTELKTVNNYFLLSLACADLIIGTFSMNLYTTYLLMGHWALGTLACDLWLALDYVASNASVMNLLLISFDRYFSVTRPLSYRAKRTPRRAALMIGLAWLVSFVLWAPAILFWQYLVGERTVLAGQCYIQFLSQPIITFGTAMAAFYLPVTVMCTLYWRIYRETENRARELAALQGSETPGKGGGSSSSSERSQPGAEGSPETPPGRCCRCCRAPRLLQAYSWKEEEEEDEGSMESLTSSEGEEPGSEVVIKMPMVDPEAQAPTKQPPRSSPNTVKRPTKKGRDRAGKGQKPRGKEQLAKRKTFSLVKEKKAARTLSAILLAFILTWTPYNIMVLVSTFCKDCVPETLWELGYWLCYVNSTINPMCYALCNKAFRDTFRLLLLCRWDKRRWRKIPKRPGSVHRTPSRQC
Procedure, shortened: (§1)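 CHO cells expressing human M1–M4 receptors loaded with Fluo-3 AM or Calcium 3 dye (1 mM probenecid, pH 7.4); 0.5% DMSO final. Agonist mode: compound added directly; antagonist mode: 15 min pre-incubation or co-application, then carbachol at EC80. Fluorescence read 60 s on FLIPR; efficacy relative to carbachol maximum.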

M2 muscarinic receptor = target: T2, M2 muscarinic receptor (Homo sapiens, UniProt P08172); assay: Functional mobilization of intracellular calcium (FLIPR), M2-CHO cells; details: for M2 Activity: M2-CHO cells, calcium mobilization (FLIPR)
T2 construct: expressed in transfected cells; host or cells: CHO (M2-CHO)
T2 sequence (P08172 1-466): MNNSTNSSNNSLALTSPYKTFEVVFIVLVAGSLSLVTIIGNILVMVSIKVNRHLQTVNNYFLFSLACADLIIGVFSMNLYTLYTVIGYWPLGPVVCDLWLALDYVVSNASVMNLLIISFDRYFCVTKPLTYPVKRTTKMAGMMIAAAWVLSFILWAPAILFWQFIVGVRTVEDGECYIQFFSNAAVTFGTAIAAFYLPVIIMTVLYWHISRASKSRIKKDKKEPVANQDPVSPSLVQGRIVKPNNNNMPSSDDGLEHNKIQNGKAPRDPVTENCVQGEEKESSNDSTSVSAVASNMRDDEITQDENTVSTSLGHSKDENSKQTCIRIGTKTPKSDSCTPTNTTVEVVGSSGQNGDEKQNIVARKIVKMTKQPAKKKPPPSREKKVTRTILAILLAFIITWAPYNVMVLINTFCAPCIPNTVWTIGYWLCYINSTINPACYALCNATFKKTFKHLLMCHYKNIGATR
Procedure, shortened: as §1

M3 muscarinic receptor = target: T3, M3 muscarinic receptor (Homo sapiens, UniProt P20309); assay: Functional mobilization of intracellular calcium (FLIPR), M3-CHO cells; details: for M3 Activity: M3-CHO cells, calcium mobilization (FLIPR)
T3 construct: expressed in transfected cells; host or cells: CHO (M3-CHO)
Method: Functional Mobilization of Intracellular Calcium to Determine Muscarinic Receptor Activity:
CHO cells expressing muscarinic receptors (M1 to M5) are grown as monolayers in tissue culture flasks at 37° C. in a humidified atmosphere containing 5% CO2 and passaged every 3-5 days. The growth media is Dulbecco's modified eagles medium (DMEM, Gibco Cat #12430-054), containing 25 mM Hepes and supplemented with Fetal Bovine Serum (Hyclone, cat #SH30071.03), 0.1 mM of MEM non-essential amino acids (GIBCO, Cat #11140-050), 1 mM MEM Sodium Pyruvate (GIBCO Cat #11360-070) and 100 units/ml of Penicillin G and 100 μg/ml of Streptomycin (GIBCO Cat #15140-122). The recombinant muscarinic receptor cell lines are grown under antibiotic pressure with media containing 25 μg/ml zeocin and 500 μg/ml G418 (M1-CHO), 4 μg/ml puromycin, 50 μg/ml zeocin and 2.5 μg/ml blasticidin (M2 and M4-CHO) or 50 μg/ml zeocin and 4 μg/ml puromycin (M3 and M5-CHO).
Cells are harvested at 80-90% confluence using Versene (GIBCO Cat #15040-066), collected by centrifugation and seeded 18-24 hrs prior to running the calcium assay at a density of 5,000-10,000 cells/well in […], clear-bottomed 384-well plates (BD Biocoat, poly-D-lysine, Cat #356663). The day of the experiment, the cells are washed with a plate washer (Bioteck Instruments, ELX 405) using bath 1 buffer (140-mM NaCl, 4.5-mM KCl, 2-mM CaCl2, 1-mM MgCl2, 10-mM Hepes-Na, 10-mM Glucose, pH 7.4, with NaOH) containing 1 mM Probenecid. Next, the calcium dye Fluo-3 (25 μl/well of Fluo-3 AM at 4 μM, Molecular Probes F-1241, in Bath 1 buffer containing 1 mM Probenecid) is added to the 25 μl of Bath 1 remaining in each well after the plate wash and the dye is loaded at 37° C. in the tissue culture incubator for 60-90 min. The fluorescent dye is removed using the plate washer with Bath 1 containing 1 mM Probenecid, leaving 25 μl/well of this solution after the wash. Alternatively, cells can be loaded with the calcium indicator from Molecular Devices (Calcium 3 Assay Reagents, Cat #R7181) adding 5 μl of a 5× solution dye in Bath 1 containing 1 mM Probenecid (10 ml per dye flask cat #R7182 to generate a solution 20×) to 20 μl of the same buffer. After loading for 60 min, the experiment can be run without having to remove the dye.
Compounds are prepared at a 2× fold concentration in a 96-well plate (round bottom, Costar Corning cat #3656), by reconstituting the pre-spotted compounds in bath 1 containing 1 mM probenecid. The final concentration DMSO is 0.5%, and the amount of DMSO is normalized across the assay plate. To determine an agonist action of the compounds on muscarinic receptors, the reconstituted compounds are added (25 μl compound/well) to the cell assay plate (containing 25 μl/well) using the multi-channel robotic system of the FLIPR 3 Instrument (Molecular Devices, Sunnyvale, Calif.). To determine a functional inhibitory action of the compounds on muscarinic receptors, the reconstituted compounds are added (25 μl compound/well) to the assay plate and pre-incubated for 15 min prior to adding 25 μl of Carbachol at 3× the EC80 for each muscarinic subtype. Alternatively, the compounds can be co-applied simultaneously with the agonist. In both assay modes, the fluorescence is recorded for 60 sec (excitation wavelength is […] and emission wavelength 540 nm) using the FLIPR 3 instrument.
The potency, efficacy and selectivity of the muscarinic compounds were evaluated by screening the compound activity across the whole family (M1 to M5 cells). Compounds were also screened for activity on other proteins such as other GPCRs and ion channels to determine selectivity on M4 receptors.
Examples of activities and efficacies of the muscarinic compounds of formulae (I, Ia, Ib, and II) on modulating M1, M2, M3 and M4 receptors are shown below in Table 3. […]

M4 muscarinic receptor = target: T4, M4 muscarinic receptor (Homo sapiens, UniProt P08173); assay: Functional mobilization of intracellular calcium (FLIPR), M4-CHO cells; details: for M4 Activity: M4-CHO cells, calcium mobilization (FLIPR)
T4 construct: expressed in transfected cells; host or cells: CHO (M4-CHO)
T4 sequence (P08173 1-479): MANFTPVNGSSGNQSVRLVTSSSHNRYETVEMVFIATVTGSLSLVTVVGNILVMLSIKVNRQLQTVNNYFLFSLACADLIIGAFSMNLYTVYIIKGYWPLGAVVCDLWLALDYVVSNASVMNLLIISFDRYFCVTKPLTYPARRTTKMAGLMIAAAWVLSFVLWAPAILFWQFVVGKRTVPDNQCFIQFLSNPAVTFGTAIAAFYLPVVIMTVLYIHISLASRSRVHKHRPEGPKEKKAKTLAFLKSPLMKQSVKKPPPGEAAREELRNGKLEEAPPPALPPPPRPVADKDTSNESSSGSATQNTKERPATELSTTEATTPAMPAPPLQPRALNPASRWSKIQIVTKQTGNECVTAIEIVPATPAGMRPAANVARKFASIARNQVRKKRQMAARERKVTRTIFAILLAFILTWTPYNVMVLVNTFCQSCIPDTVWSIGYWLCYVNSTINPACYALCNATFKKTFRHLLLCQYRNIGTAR
Procedure, shortened: as §1

[1] = 100% efficacy = maximum response obtained with the Carbachol control
[2] = 100% efficacy is the maximum response obtained with the Carbachol control

T3 sequence (P20309 whole entry): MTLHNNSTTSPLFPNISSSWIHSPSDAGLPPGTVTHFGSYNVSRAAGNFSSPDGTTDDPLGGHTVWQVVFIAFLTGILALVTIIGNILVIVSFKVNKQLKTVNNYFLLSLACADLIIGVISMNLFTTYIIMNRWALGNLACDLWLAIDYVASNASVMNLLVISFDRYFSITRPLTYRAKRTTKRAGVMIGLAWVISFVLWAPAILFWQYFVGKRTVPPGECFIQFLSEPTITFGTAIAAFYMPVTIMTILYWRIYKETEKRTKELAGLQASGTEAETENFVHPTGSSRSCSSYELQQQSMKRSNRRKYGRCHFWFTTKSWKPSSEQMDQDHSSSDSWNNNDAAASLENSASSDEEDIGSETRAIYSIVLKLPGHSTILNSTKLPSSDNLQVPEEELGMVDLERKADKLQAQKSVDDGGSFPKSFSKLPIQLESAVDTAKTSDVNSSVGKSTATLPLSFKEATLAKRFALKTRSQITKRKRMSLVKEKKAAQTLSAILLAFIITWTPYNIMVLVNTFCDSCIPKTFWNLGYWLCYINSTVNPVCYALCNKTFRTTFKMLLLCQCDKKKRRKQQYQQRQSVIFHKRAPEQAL

Emax (M1 muscarinic receptor; [1]) [%] | Emax (M2 muscarinic receptor; [1]) [%] | Emax (M3 muscarinic receptor; [1]) [%] | Emax (M4 muscarinic receptor; [1]) [%] | Emax (M1 muscarinic receptor; [2]) [%] | Emax (M2 muscarinic receptor; [2]) [%] | Emax (M3 muscarinic receptor; [2]) [%] | Emax (M4 muscarinic receptor; [2]) [%] | SMILES | M1 Activity (M1 muscarinic receptor) | M2 Activity (M2 muscarinic receptor) | M3 Activity (M3 muscarinic receptor) | M4 Activity (M4 muscarinic receptor)
25 to 100 | < 25 | < 25 | < 25 | – | – | – | – | COc1ccc(C(=O)C(C)C)cc1C1CCN(C2CC3CC[C@H]2C3)CC1 (stereo in doubt) [Compound 222, 1-(3-(1-((1S,2R,4R)-bicyclo[2.2.1]heptan-2-yl)piperidin-4-yl)-4-methoxyphenyl)-2-methylpropan-1-one] | – | – | – | –
25 to 100 | < 25 | < 25 | 25 to 100 | – | – | – | – | Oc1ccccc1C1CCN(C2CC3CC[C@H]2C3)CC1 (stereo in doubt) [Compound 229, 2-(1-((1S,2R,4R)-bicyclo[2.2.1]heptan-2-yl)piperidin-4-yl)phenol] | ++ (activity was measured to be from 1.0 μM to 5.0 μM) | + (activity was measured to be greater than 5.0 μM) | + (activity was measured to be greater than 5.0 μM) | ++ (activity was measured to be from 1.0 μM to 5.0 μM)
– | – | – | – | 25 to 100 | < 25 | < 25 | 25 to 100 | COc1ccccc1C1CCN(C2CC3CC[C@H]2C3)CC1 (stereo in doubt) [Compound 397, 1-((1S,2R,4R)-bicyclo[2.2.1]heptan-2-yl)-4-(2-methoxyphenyl)piperidine] | ++ (activity was measured to be from 1.0 μM to 5.0 μM) | + (activity was measured to be greater than 5.0 μM) | + (activity was measured to be greater than 5.0 μM) | +++ (activity was measured to be less than 1.0 μM)

Second part, the compound before the results:

SMILES | Emax (M1 muscarinic receptor; [1]) [%] | Emax (M2 muscarinic receptor; [1]) [%] | Emax (M3 muscarinic receptor; [1]) [%] | Emax (M4 muscarinic receptor; [1]) [%] | Emax (M1 muscarinic receptor; [2]) [%] | Emax (M2 muscarinic receptor; [2]) [%] | Emax (M3 muscarinic receptor; [2]) [%] | Emax (M4 muscarinic receptor; [2]) [%] | M1 Activity (M1 muscarinic receptor) | M2 Activity (M2 muscarinic receptor) | M3 Activity (M3 muscarinic receptor) | M4 Activity (M4 muscarinic receptor)
CC(=O)COc1ccccc1C1CCN(C2CC3CC[C@H]2C3)CC1 (stereo in doubt) [Compound 53, 1-(2-(1-((1S,2R,4R)-bicyclo[2.2.1]heptan-2-yl)piperidin-4-yl)phenoxy)propan-2-one] | 25 to 100 | 25 to 100 | < 25 | 25 to 100 | – | – | – | – | – | – | – | –
COc1ccc(C#Cc2ccccc2)cc1C1CCN(C2CC3CC[C@H]2C3)CC1 (stereo in doubt) [Compound 64, 1-((1S,2R,4R)-bicyclo[2.2.1]heptan-2-yl)-4-(2-methoxy-5-(phenyl-ethynyl)phenyl)piperidine] | 25 to 100 | 25 to 100 | < 25 | 25 to 100 | – | – | – | – | + (activity was measured to be greater than 5.0 μM) | + (activity was measured to be greater than 5.0 μM) | + (activity was measured to be greater than 5.0 μM) | ++ (activity was measured to be from 1.0 μM to 5.0 μM)
COc1ccccc1C1CCN(CC2CCCOC2)CC1 (stereo not shown) [Compound 2] | 25 to 100 | < 25 | < 25 | 25 to 100 | – | – | – | – | + (activity was measured to be greater than 5.0 μM) | + (activity was measured to be greater than 5.0 μM) | + (activity was measured to be greater than 5.0 μM) | ++ (activity was measured to be from 1.0 μM to 5.0 μM)
COc1ccc(C(=O)C2CC2)cc1C1CCN([C@H]2C[C@H]3CC[C@H]2C3)CC1 [Compound 3] | < 25 | < 25 | < 25 | < 25 | – | – | – | – | + (activity was measured to be greater than 5.0 μM) | + (activity was measured to be greater than 5.0 μM) | + (activity was measured to be greater than 5.0 μM) | + (activity was measured to be greater than 5.0 μM)
COc1cc(F)ccc1C1CCN([C@H]2C[C@H]3CC[C@H]2C3)CC1 [Compound 4] | 25 to 100 | < 25 | < 25 | 25 to 100 | – | – | – | – | + (activity was measured to be greater than 5.0 μM) | + (activity was measured to be greater than 5.0 μM) | + (activity was measured to be greater than 5.0 μM) | +++ (activity was measured to be less than 1.0 μM)
COc1ccc(F)cc1C1(F)CCN(C[C@@H]2C[C@H]3C=C[C@H]2C3)CC1 [Compound 5] | 25 to 100 | 25 to 100 | < 25 | 25 to 100 | – | – | – | – | + (activity was measured to be greater than 5.0 μM) | + (activity was measured to be greater than 5.0 μM) | + (activity was measured to be greater than 5.0 μM) | +++ (activity was measured to be less than 1.0 μM)
